Test results as given in patent US11434242B2, “Dopamine-b-hydroxylase inhibitors” (BIAL-PORTELA & Cª, S.A., priority 2017, dated 2022).
Marks after values point to notes of the source that are not given here.

Target: T1, Dopamine beta hydroxylase (Homo sapiens, UniProt P09172)
T1 construct: 125 μl of plasma; tissue Instituto Português do Sangue Transplantação; host or cells: human plasma from healthy donors
T1 sequence (P09172 40-617 limits assumed): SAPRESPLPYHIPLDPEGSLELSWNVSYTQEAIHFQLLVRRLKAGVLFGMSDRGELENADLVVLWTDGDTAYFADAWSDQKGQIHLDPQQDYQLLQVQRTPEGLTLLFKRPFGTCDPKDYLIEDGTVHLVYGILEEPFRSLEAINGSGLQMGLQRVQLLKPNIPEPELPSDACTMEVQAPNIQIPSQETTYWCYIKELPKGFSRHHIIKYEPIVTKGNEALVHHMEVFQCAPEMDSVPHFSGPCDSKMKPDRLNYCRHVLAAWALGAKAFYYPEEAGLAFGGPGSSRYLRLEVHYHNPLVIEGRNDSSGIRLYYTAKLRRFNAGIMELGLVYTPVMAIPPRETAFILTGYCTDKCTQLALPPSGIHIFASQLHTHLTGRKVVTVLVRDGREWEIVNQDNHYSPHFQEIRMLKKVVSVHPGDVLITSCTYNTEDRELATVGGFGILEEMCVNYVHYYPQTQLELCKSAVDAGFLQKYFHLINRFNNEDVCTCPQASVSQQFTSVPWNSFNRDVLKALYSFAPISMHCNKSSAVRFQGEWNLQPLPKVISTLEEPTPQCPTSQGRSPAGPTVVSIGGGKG
Test: Dopamine beta hydroxylase activity in human plasma
Assay type: biochemical
How it was run: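 Octopamine production from tyramine over 45 min at 37° C, measured photometrically at 330 nm after SCX extraction and periodate oxidation against an octopamine standard curve, indicates plasma DβH activity. Compounds tested at final 10, 100 and 1000 nM in human plasma, pH 5.0 cofactor buffer, 10 min preincubation; results as % of control.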

Row | Plasma (0.01 μM), activity in % of control (inhibitor 0.01 μM) | Plasma (0.1 μM), activity in % of control (inhibitor 0.1 μM) | Plasma (0.01 μM), activity in % of control, re-test (asterisked) (inhibitor 0.01 μM, re-tested under the same experimental conditions, asterisked data believed to be correct) | Plasma (0.1 μM), activity in % of control, re-test (asterisked) (inhibitor 0.1 μM, re-tested under the same experimental conditions, asterisked data believed to be correct) | SMILES
1 | 104.9 % of control | 94.8 % of control |  |  | CN(CCO)Cc1[nH]c(=S)n2c1C[C@H](c1c(F)c(F)cc(F)c1F)C2.Cl [Example 211, (R)-1-(((2-hydroxyethyl)(methyl)amino)methyl)-6-(2,3,5,6-tetrafluorophenyl)-2,5,6,7-tetrahydro-3H-pyrrolo[1,2-c]imidazole-3-thione hydrochloride]
2 | 105.9 % of control | 66.6 % of control |  |  | Fc1cc(F)c(F)c([C@H]2Cc3c(CCc4ccccn4)[nH]c(=S)n3C2)c1F [Example 213, (R)-1-(2-(pyridin-2-yl)ethyl)-6-(2,3,5,6-tetrafluorophenyl)-2,5,6,7-tetrahydro-3H-pyrrolo[1,2-c]imidazole-3-thione]
3 | 109.1 % of control | 72.1 % of control |  |  | Fc1ccc(Br)c(F)c1[C@H]1Cc2c(CCc3cccnc3)[nH]c(=S)n2C1 [Example 214, (R)-6-(3-bromo-2,6-difluorophenyl)-1-(2-(pyridin-3-yl)ethyl)-2,5,6,7-tetrahydro-3H-pyrrolo[1,2-c]imidazole-3-thione]
4 | 74.3 % of control | 34.2 % of control |  |  | Cl.Fc1ccc(Cl)c(F)c1[C@@H]1Cc2c(CCc3cccnc3)[nH]c(=S)n2C1 [Example 215, (S)-6-(3-chloro-2,6-difluorophenyl)-1-(2-(pyridin-3-yl)ethyl)-2,5,6,7-tetrahydro-3H-pyrrolo[1,2-c]imidazole-3-thione Hydrochloride]
5 | 84.5 % of control | 47.1 % of control |  |  | CCOCCCc1[nH]c(=S)n2c1C[C@H](c1c(F)c(F)cc(F)c1F)C2 [Example 216, (R)-1-(3-ethoxypropyl)-6-(2,3,5,6-tetrafluorophenyl)-2,5,6,7-tetrahydro-3H-pyrrolo[1,2-c]imidazole-3-thione]
6 | 99.8 % of control | 92.3 % of control |  |  | Cn1ccnc1CCc1[nH]c(=S)n2c1C[C@H](c1c(F)c(F)cc(F)c1F)C2 [Example 217, (R)-1-(2-(1-methyl-1H-imidazol-2-yl)ethyl)-6-(2,3,5,6-tetrafluorophenyl)-2,5,6,7-tetrahydro-3H-pyrrolo[1,2-c]imidazole-3-thione]
7 | 89.2 % of control | 69.1 % of control |  |  | Fc1cc(F)c(F)c([C@H]2Cc3c(CCc4ccncc4)[nH]c(=S)n3C2)c1F [Example 218, (R)-1-(2-(pyridin-4-yl)ethyl)-6-(2,3,5,6-tetrafluorophenyl)-2,5,6,7-tetrahydro-3H-pyrrolo[1,2-c]imidazole-3-thione]
8 | 76.5 % of control | 17.7 % of control |  |  | O=C(NCc1[nH]c(=S)n2c1C[C@@H](c1c(F)ccc(Cl)c1F)C2)C1CC1 [Example 220, (S)—N-((6-(3-chloro-2,6-difluorophenyl)-3-thioxo-3,5,6,7-tetrahydro-2H-pyrrolo[1,2-c]imidazol-1-yl)methyl)cyclopropanecarboxamide]
9 | 73.6 % of control | 12.9 % of control |  |  | O=C(NCc1[nH]c(=S)n2c1C[C@@H](c1c(F)ccc(Cl)c1F)C2)C1CCOCC1 [Example 222, (S)—N-((6-(3-chloro-2,6-difluorophenyl)-3-thioxo-2,5,6,7-tetrahydro-3H-pyrrolo[1,2-c]imidazol-1-yl)methyl)tetrahydro-2H-pyran-4-carboxamide]
10 | 42.7 % of control | 7.2 % of control |  |  | O=C(NCc1[nH]c(=S)n2c1C[C@@H](c1c(F)ccc(Cl)c1F)C2)c1cccnc1 [Example 223, (S)—N-((6-(3-chloro-2,6-difluorophenyl)-3-thioxo-2,5,6,7-tetrahydro-3H-pyrrolo[1,2-c]imidazol-1-yl)methyl)nicotinamide]
11 | 65.3 % of control | 12.5 % of control |  |  | N#C/N=C(/NCc1[nH]c(=S)n2c1C[C@@H](c1c(F)ccc(Br)c1F)C2)N1CCCC1 [Example 225, (S,Z)—N-((6-(3-bromo-2,6-difluorophenyl)-3-thioxo-2,5,6,7-tetrahydro-3H-pyrrolo[1,2-c]imidazol-1-yl)methyl)-N′-cyanopyrrolidine-1-carboximidamide]
12 | 100.8 % of control | 47.4 % of control |  |  | CN(CCc1[nH]c(=S)n2c1C[C@@H](c1c(F)ccc(Cl)c1F)C2)C(=O)c1cccnc1 [Example 226, (S)—N-(2-(6-(3-chloro-2,6-difluorophenyl)-3-thioxo-2,5,6,7-tetrahydro-3H-pyrrolo[1,2-c]imidazol-1-yl)ethyl)-N-methylnicotinamide]
13 | 86.8 % of control | 54.9 % of control |  |  | CN(CCc1[nH]c(=S)n2c1C[C@@H](c1c(F)ccc(Cl)c1F)C2)C(=O)N1CCCC1 [Example 227, (S)—N-(2-(6-(3-chloro-2,6-difluorophenyl)-3-thioxo-2,5,6,7-tetrahydro-3H-pyrrolo[1,2-c]imidazol-1-yl)ethyl)-N-methylpyrrolidine-1-carboxamide]
14 | 84.3 % of control | 38.3 % of control |  |  | Cn1c(CC(=O)O)c2n(c1=S)C[C@@H](c1c(F)c(F)cc(F)c1F)C2 [Example 229, (R)-2-(2-methyl-6-(2,3,5,6-tetrafluorophenyl)-3-thioxo-3,5,6,7-tetrahydro-2H-pyrrolo[1,2-c]imidazol-1-yl)acetic Acid]
15 | 82.0 % of control | 41.6 % of control |  |  | Cn1c(CC(=O)O)c2n(c1=S)C[C@H](c1cc(Cl)ccc1F)C2 [Example 230, (S)-2-(6-(5-chloro-2-fluorophenyl)-2-methyl-3-thioxo-2,5,6,7-tetrahydro-3H-pyrrolo[1,2-c]imidazol-1-yl)acetic acid]
16 | 83.8 % of control | 66.8 % of control | 59.3* % of control | 9.7* % of control | Cn1c(CC(=O)N2CCOCC2)c2n(c1=S)C[C@H](c1c(F)ccc(Br)c1F)C2 [Example 233, (S)-2-(6-(3-bromo-2,6-difluorophenyl)-2-methyl-3-thioxo-2,5,6,7-tetrahydro-3H-pyrrolo[1,2-c]imidazol-1-yl)-1-morpholinoethan-1-one]
17 | 43.4 % of control | 12.2 % of control |  |  | Cn1c(C2(C(=O)N[C@@H]3CCOC3)CC2)c2n(c1=S)C[C@H](c1c(F)ccc(Br)c1F)C2 [Example 234, 1-((S)-6-(3-bromo-2,6-difluorophenyl)-2-methyl-3-thioxo-2,5,6,7-tetrahydro-3H-pyrrolo[1,2-c]imidazol-1-yl)-N—((R)-tetrahydrofuran-3-yl)cyclopropane-1-carboxamide]

Row | SMILES | Plasma (0.01 μM), activity in % of control (inhibitor 0.01 μM) | Plasma (0.1 μM), activity in % of control (inhibitor 0.1 μM) | Plasma (0.01 μM), activity in % of control, re-test (asterisked) (inhibitor 0.01 μM, re-tested under the same experimental conditions, asterisked data believed to be correct) | Plasma (0.1 μM), activity in % of control, re-test (asterisked) (inhibitor 0.1 μM, re-tested under the same experimental conditions, asterisked data believed to be correct)
18 | Fc1cc(F)c(F)c([C@H]2Cc3c(CCc4cccnc4)[nH]c(=S)n3C2)c1F [Example 212, (R)-1-(2-(pyridin-3-yl)ethyl)-6-(2,3,5,6-tetrafluorophenyl)-6,7-dihydro-2H-pyrrolo[1,2-c]imidazole-3(5H)-thione] | 86.5 % of control | 46 % of control |  | 
19 | O=C(NCc1[nH]c(=S)n2c1C[C@@H](c1c(F)ccc(Cl)c1F)C2)C1CCCC1 [Example 221, (S)—N-((6-(3-chloro-2,6-difluorophenyl)-3-thioxo-2,5,6,7-tetrahydro-3H-pyrrolo[1,2-c]imidazol-1-yl)methyl)cyclopentanecarboxamide] | 79.3 % of control | 30.0 % of control |  | 
20 | N#CN/C(N)=N/Cc1[nH]c(=S)n2c1C[C@@H](c1c(F)ccc(Br)c1F)C2 [Example 224, 2-{[(6S)-6-(3-bromo-2,6-difluorophenyl)-3-thioxo-2,5,6,7-tetrahydro-3H-pyrrolo[1,2-c]imidazol-1-yl]methyl}-1-cyanoguanidine] | 22.6 % of control | 0.6 % of control |  | 
21 | Cc1noc(Cc2[nH]c(=S)n3c2C[C@@H](c2c(F)ccc(Cl)c2F)C3)n1 [Example 228, (S)-6-(3-chloro-2,6-difluorophenyl)-1-((3-methyl-1,2,4-oxadiazol-5-yl)methyl)-6,7-dihydro-2H-pyrrolo[1,2-c]imidazole-3(5H)-thione] | 90.2 % of control | 56.0 % of control |  | 
